Assay results reported in patent US9833425B2, “Gentisic acid is used to improve systemic hemodynamics, hepatic mitochondrial function and lactate acidemia in patients with septic shock” (priority 2015, dated 2017).
Entries after “also recorded” stand apart in the source; their conditions may differ. Read-outs that look alike come from different tables or passages of the source. Marks after values point to notes of the source that are not given here.

Legend:
hepatic mitochondria = assay: Oxygen consumption rates of hepatic mitochondria harvested after in vivo treatment (Seahorse XF24); parameters: species or system dog; details: treated septic dogs; FCCP 4 uM
Protocol: After completion of the in-vivo measurements, we administered sodium pentobarbital (110 mg/kg) to euthanize the animal. In a subset of animals of each group, we immediately harvested a piece of liver and isolated the mitochondria as described by Schnaitman and Greenawalt (23). Briefly, we minced the extracted liver in mitochondrial isolation buffer (MSHE) that includes 70 mM sucrose, 210 mM mannitol, 5 mM HEPES, 1 mM EGTA, and fatty acid free bovine serum albumin (BSA). We then disrupted the tissue using a drill-driven glass/Teflon dounce homogenizer. We centrifuged the homogenate three times, after which we re-suspended the final pellet in a minimal volume of MSHE+BSA and determined protein (mg/ml). We diluted the mitochondrial preparation in cold mitochondrial assay solution (MAS) that contained 70 mM sucrose, 220 mM mannitol, 10 mM KH2PO4, 5 mM MgCl2, 2 mM HEPES, 1 mM EGTA, and BSA for plating directly onto the custom Seahorse 24-well culture dish (˜20 ug mitochondrial protein/50 ul per well; see further below). After centrifugation of the plate and addition of appropriate substrates, we viewed the mitochondria under a microscope to ensure consistent adherence to the well. We then transferred the plate to the XF24 Analyzer for initiation of the protocol as described below (17).
To examine mitochondrial function in this model, we used a novel new technology that is capable of measuring dynamic changes in mitochondrial function, not easily attainable by other technologies (17). The Seahorse® XF24 extracellular flux analyser (Seahorse Bioscience, MA, USA) refines the technology by which mitochondrial oxygen consumption can be measured. This technology uses a piston to reversibly enclose a small volume (7 ul) above the mitochondria that can monitor oxygen uptake in that volume for 2-5 min, then raises the piston, allowing the bulk incubation medium (˜1 ml) to re-equilibrate. The ability to make up to 4 additions during the experiment allows mitochondrial respiration to be measured under various metabolic conditions. This piece of equipment has never been used to measure mitochondrial function in SS.
In this protocol, we sequentially measured mitochondrial function under various metabolic conditions (17). To obtain basal OCR, we first added a substrate to the preparation that contained pyruvate (10 mM) and malate (2 mM). We then added ADP (adenosine-diphosphate; 4 mM) that allows ATP synthase to function, producing an increase in OCR (coupled OCR) that is termed “state3ADP”. When the ATP/ADP ratio approaches equilibrium, pmf rises, after which proton reentry through the synthase stops and respiration slows. We terminated coupled respiration (i.e. state3ADP) by the addition of the ATP synthase inhibitor oligomycin (2.0 uM) in which we achieved “stateoligomycin” where ATP recycling cannot contribute and there is a stable decrease in OCR. We then added the protonophore, FCCP (4 uM; carbonyl cyanide p-trifluoromethoxy-phenylhydrazone). FCCP leads to uncoupled respiration in which we previously titrated the concentration of FCCP to yield a maximal effect. In mitochondria in which ATP synthase activity is a limiting factor, uncoupled respiration may be greater than coupled respiration. […] We finally added rotenone (R; 2 uM) and antimycin A (AA; 2 uM) which are inhibitors of the electron transport chain (ETC) complexes, I and III, respectively. When added to the mitochondrial preparation, these inhibitors produce a marked decline in mitochondrial respiration since the electron transport chain is inhibited.
With each treatment group, we obtained measurements of basal OCR, coupled OCR (i.e. state3ADP), and maximal OCR. In addition, we calculated coupled and uncoupled respiratory control ratios from state3ADP/stateoligomycin and uncoupled respiration/state FCCP/stateoligomycin, respectively. […]

[1] = test system: mitochondrial complex IV (cytochrome c oxidase); assay: Enzymatic activity of hepatic mitochondrial complex IV; assay type: biochemical, dog; details: hepatic mitochondria of treated septic dogs; mean ± SD
Text: As part of our assessment of mitochondrial function, we also measured the enzymatic activity of hepatic mitochondrial complex IV based on the rationale of Levy et al (10), since these investigators considered that dysfunction of complex IV was the most important determinant of abnormal mitochondrial function in SS. We determined complex IV activity spectrophotometrically by a temperature-controlled Ultrospec™ 2100 ultraviolet-visible spectrophotometer (Biopharmacia Biotech, Uppsala, Sweden) (17). Complex IV activity was measured at 25° C. by monitoring the absorbance decrease of reduced cytochrome c at 550 nm.

[2] = test system: canine model of septic shock (Pseudomonas aeruginosa); details: for Arterial pH / LD (lactate dehydrogenase) / Oxygen delivery: mean ± SD
Protocol: We used a bacteremic model of Pseudomonas aeruginosa in this study as previously described (20). We used this particular model, since we wanted to measure mitochondrial function and LA under conditions of an acute and intensive inflammatory response analogous to that which would occur in a severe bout of SS in the clinical condition. […] Over the course of the experiment, we studied the animals (18 to 26 kg) while anesthetized with sufentanil citrate (0.05-0.3 ug/kg/min) and midazolam (5 ug/kg/min), and while being ventilated receiving 100% oxygen to maintain arterial around PO2 ˜400 mmHg. We adjusted the ventilator rate over the course of the study to attenuate the development of the metabolic acidosis that is usually observed (20).
To assess hemodynamics in this model, we inserted vascular catheters under sterile conditions as previously described (20), after which we connected the catheters to pressure transducers (Cobe, Argon) that were referenced relative to the left atrium and connected to a chart recorder (Astro-Med, W Warwick, R.I.). To measure MAP, we inserted a polyethylene catheter into the right femoral artery, while to measure pulmonary vascular pressures, we inserted a Swanz-Ganz catheter (Edwards Lifesciences, Irvine, Calif.) by percutaneous techniques through the right jugular vein. From the Swanz-Ganz catheter, we obtained measurements of pulmonary arterial pressure (Ppa), wedge pressure (Pwp), and right atrial pressure (Rap), as well as determinations of thermodilution cardiac output (CO).
From the hemodynamic measurements, we calculated SV from CO/heart rates (HR), stroke work (SW) from [SV*(MAP−Pwp)], and systemic vascular resistance (SVR) from [(MAP-Rap)/CO)*80]. We also normalized measurements of SV, SW, and CO and organ oxygen delivery (DO2) to body weight. We calculated DO2 from CO×Hb×1.34 ml oxygen per gram of Hb, since Hb was 100% saturated at a PO2 of ˜400 mmHg. From the arterial catheter and distal port of the Swanz-Ganz catheter, we also took arterial and mixed venous blood samples, respectively, for analyses of PO2, PCO2, and pH.
In addition, we placed another polyethylene catheter into the left jugular vein, also by percutaneous techniques, for infusion of the bacteria and intravenous fluids and for obtaining blood chemistry and hematological samples. Since the baseline Pwp found in this model usually averages≈8-10 mmHg, we infused normal saline solution as necessary to maintain Pwp relatively constant over the duration of this study. […] The Clinical Chemistry Laboratory at the Health Sciences Centre performed the clinical laboratory tests.
We included 5 groups of animals in the initial phase of this study. These groups included a septic control group, a non-septic control group, a norepinephrine (NE) septic group, a gentisic acid sodium salt (GSS) septic group, and a GSS non-septic group. In each group, we made baseline measurements of hemodynamics and blood parameters after approximately 1 hr period of stability. In the septic groups, after initiation of the bacterial infusion, we repeated the measurements in the septic shock condition. […] In the septic control group, after the SS condition, we started an infusion of 5% dextrose in water (D5W) at approximately 40 ml/hr for the remainder of the study, since D5W was the diluent for both the NE and GSS treatments.
In all groups, we then made posttreatment measurements at 3 hrs and 5 hrs after completion of the septic shock/sham-shock determinations.
In this supplemental study, we examined the effect of gallic acid on hemodynamics and mitochondrial function in our Pseudomonas aeruginosa model in a manner identical to that described for GSS treatment.

[3] = septic dogs, 3 hrs posttreatment
[4] = septic dogs, 5 hrs posttreatment
[5] = septic dogs, baseline (before bacteria/treatment)
[6] = septic dogs, septic shock (before treatment)

## NC[C@H](O)c1ccc(O)c(O)c1 [NE, norepinephrine]
Hepatic mitochondria
  maximal (uncoupled) respiration (OCR after FCCP) of hepatic mitochondria: restore the increase in OCR in response to FCCP
[1]
  enzymatic activity of mitochondrial complex IV: 3.89±0.33 umol/min/mg protein
[2]; dog, in vivo
  effect of treatment on troponin (index of myocardial injury): increased in the NE septic group
[2]; septic dogs, 3 hr and 5 hr vs septic control group, did not reach statistical significance
  effect of treatment on stroke work index: an increase in stroke work index
[2]; septic dogs, 3 hrs and 5 hrs posttreatment vs septic shock condition
  effect of treatment on systemic vascular resistance (SVR): increased SVR back to the baseline value; also recorded: an increase in SVR
[2]; [3]
  Arterial pH: 7.20 ± .04*^+$
  LD (lactate dehydrogenase): 315 ± 113*^+$ IU
  Oxygen delivery: 29 ± 8 mL/min/kg
[2]; [4]
  Arterial pH: 7.16 ± 0.06*^+$
  LD (lactate dehydrogenase): 409 ± 167*^+$^ IU
  Oxygen delivery: 28 ± 10 mL/min/kg
[2]; [5]
  Arterial pH: 7.38 ± .05
  LD (lactate dehydrogenase): 43 ± 23 IU
  Oxygen delivery: 20 ± 3 mL/min/kg
[2]; septic dogs, infusion started at septic shock condition, 3 hr and 5 hr post treatment
  effect of treatment on mean arterial pressure (MAP): increased MAP back to the baseline value; also recorded: return in MAP to baseline
[2]; septic dogs, over the course of the study
  effect of treatment on blood lactate concentration: serum lactate increased; also recorded: significantly increased
[2]; [6]
  Arterial pH: 7.26 ± .04*^+$
  LD (lactate dehydrogenase): 177 ± 97*^+ IU
[2]; septic dogs, septic shock condition (before treatment)
  Oxygen delivery: 26 ± 11 mL/min/kg
[2]; septic dogs, vs septic control group and gentisic septic group
  effect of treatment on oxygen delivery (DO2): increase in DO2
